US6737383B1, “Herbicidal oxadiazolidines” (priority 1999, dated 2004)

How the values were obtained:
crabgrass = assay: Test B pre/postemergence crabgrass; assay type: in vivo, Digitaria sanguinalis
Summary of the method: (§1)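 Herbicidal effect was estimated by eye on a ten-point control scale after plants spent twelve to sixteen days in a greenhouse following soil or foliar treatment. Foliar sprays targeted plants at one to four leaves; all doses were formulated in a non-phytotoxic solvent with surfactant.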

rape = assay: Test B pre/postemergence rape; assay type: in vivo, Brassica napus
Summary of the method: as §1

bamyardgrass = assay: Test B flood test barnyardgrass; assay type: in vivo, Echinochloa crus-galli
Summary of the method: (§2)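 Each value is a visual injury score relative to controls, with 10 meaning complete control and 0 no effect. Evaluation took place twelve to sixteen days after the 2-leaf-stage plants were treated and kept in the greenhouse.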

surinam grass = assay: Test B pre/postemergence surinam grass; assay type: in vivo, Brachiaria decumbens
Summary of the method: as §1

bedstraw = assay: Test B pre/postemergence bedstraw; assay type: in vivo, Galium aparine
Summary of the method: as §1

velvetleaf = assay: Test B pre/postemergence velvetleaf; assay type: in vivo, Abutilon theophrasti; conditions: for Plant response rating, Velvetleaf: Rate 250 g/ha
Summary of the method: as §1

wheat = assay: Test B pre/postemergence wheat; assay type: in vivo, Triticum aestivum; conditions: for Plant response rating, Wheat: Rate 250 g/ha
Summary of the method: as §1

pigweed = assay: Test B pre/postemergence pigweed; assay type: in vivo, Amaranthus retroflexus
Summary of the method: as §1

corn = assay: Test B pre/postemergence corn; assay type: in vivo, Zea mays
Summary of the method: as §1

wild oat = assay: Test B pre/postemergence wild oat; assay type: in vivo, Avena fatua; conditions: for Plant response rating, Wild oats: Rate 250 g/ha
Summary of the method: as §1

cocklebur = assay: Test B pre/postemergence cocklebur; assay type: in vivo, Xanthium strumarium
Summary of the method: as §1

blackgrass = assay: Test B pre/postemergence blackgrass; assay type: in vivo, Alopecurus myosuroides
Summary of the method: as §1

smallflower flatsedge = assay: Test B flood test smallflower flatsedge; assay type: in vivo, Cyperus difformis
Summary of the method: as §2

soybean = assay: Test B pre/postemergence soybean; assay type: in vivo, Glycine max
Summary of the method: as §1

purple nutsedge = assay: Test B pre/postemergence purple nutsedge; assay type: in vivo, Cyperus rotundus
Summary of the method: as §1

sugar beet = assay: Test B pre/postemergence sugar beet; assay type: in vivo, Beta vulgaris; conditions: for Plant response rating, Sugarbeets: Rate 250 g/ha
Summary of the method: as §1

[1] = Postemergence, Rate 125 g/ha, scale of 0 to 10 where 0 is no effect and 10 is complete control
[2] = Postemergence, Rate 250 g/ha, scale 0 to 10, 0 no effect, 10 complete control
[3] = Preemergence, Rate 62 g/ha, scale 0 to 10 (0 no effect, 10 complete control)
[4] = Preemergence, Rate 125 g/ha, scale 0 to 10 (0 no effect, 10 complete control)
[5] = Preemergence, Rate 250 g/ha, scale of 0 to 10 where 0 is no effect and 10 is complete control
[6] = Preemergence, Rate 500 g/ha, scale 0 to 10 (0 no effect, 10 complete control)
[7] = Rate 62 g/ha, Postemergence, scale of 0 to 10 where 0 is no effect and 10 is complete control
[8] = Rate 500 g/ha, Postemergence, scale 0 to 10, 0 no effect, 10 complete control
[9] = Postemergence, Rate 62 g/ha, scale 0 to 10, 0 is no effect, 10 is complete control
[10] = Rate 250 g/ha, headed Pre-emergence (flood test species), scale 0 to 10 (0 no effect, 10 complete control)
[11] = Rate 500 g/ha, headed Pre-emergence (flood test species), scale 0 to 10 (0 no effect, 10 complete control)
[12] = Rate 500 g/ha, listed under Postemergence (flood test species), scale 0 to 10, 0 no effect, 10 complete control
[13] = Rate 125 g/ha, Postemergence, scale 0 to 10, 0 no effect, 10 complete control
[14] = Preemergence, Rate 125 g/ha, 0 is no effect, 10 is complete control
[15] = Preemergence, scale of 0 to 10 where 0 is no effect and 10 is complete control
[16] = Postemergence, scale 0 to 10, 0 is no effect, 10 is complete control
[17] = Rate 250 g/ha, Postemergence, scale 0 to 10, 0 is no effect, 10 is complete control

Compound: CCn1c(=O)on(C(=O)N(c2ccc(Cl)cc2)C(C)C)c1=O [Compound 108]
- Crabgrass plant response rating (crabgrass; [1]): 8
- Crabgrass plant response rating (crabgrass; [2]): 8
- Crabgrass plant response rating (crabgrass; [3]): 7
- Plant response rating, Crabgrass (crabgrass; [4]): 9
- Plant response rating, Crabgrass (crabgrass; [5]): 9
- Crabgrass plant response rating (crabgrass; [6]): 10
- Crabgrass plant response rating (crabgrass; [7]): 4
- Crabgrass plant response rating (crabgrass; [8]): 9
- Rape plant response rating (rape; [1]): 0
- Rape plant response rating (rape; [2]): 0
- Rape plant response rating (rape; [3]): 0
- Plant response rating, Rape (rape; [4]): 0
- Plant response rating, Rape (rape; [5]): 7
- Rape plant response rating (rape; [6]): 9
- Rape plant response rating (rape; [7]): 0
- Rape plant response rating (rape; [8]): 2
- Barnyardgrass plant response rating (bamyardgrass; [9]): 0
- Barnyardgrass plant response rating (bamyardgrass; Rate 125 g/ha, Postemergence section (flood test species), scale 0 to 10, 0 no effect, 10 complete control): 0
- Barnyardgrass plant response rating (bamyardgrass; [10]): 0
- Plant response rating, Barnyardgrass (bamyardgrass; [11]): 0
- Barnyardgrass plant response rating (bamyardgrass; [12]): 0
- Barnyardgrass plant response rating (bamyardgrass; Rate 1000 g/ha, Pre-emergence (as headed), scale 0 to 10): 0
- Barnyardgrass plant response rating (bamyardgrass; Rate 2000 g/ha, Pre-emergence (as headed), scale 0 to 10, 0 no effect, 10 complete control): 0
- Barnyardgrass plant response rating (bamyardgrass; flood test, listed under Postemergence, Rate 250 g/ha, scale 0 to 10, 0 no effect, 10 complete control): 0
- B. signalgrass plant response rating (surinam grass; [9]): 0
- B. signalgrass plant response rating (surinam grass; [2]): 3
- B. signalgrass plant response rating (surinam grass; [3]): 4
- Plant response rating, B. signalgrass (surinam grass; [4]): 6
- Plant response rating, B. signalgrass (surinam grass; [5]): 7
- B. signalgrass plant response rating (surinam grass; [6]): 9
- B. signalgrass plant response rating (surinam grass; [13]): 3
- B. signalgrass plant response rating (surinam grass; Rate 500 g/ha, Postemergence, scale of 0 to 10 where 0 is no effect and 10 is complete control): 6
- Bedstraw plant response rating (bedstraw; [9]): 0
- Bedstraw plant response rating (bedstraw; [2]): 2
- Bedstraw plant response rating (bedstraw; [3]): 0
- Plant response rating, Bedstraw (bedstraw; [4]): 5
- Plant response rating, Bedstraw (bedstraw; [5]): 8
- Bedstraw plant response rating (bedstraw; [6]): 8
- Bedstraw plant response rating (bedstraw; [13]): 0
- Bedstraw plant response rating (bedstraw; [8]): 6
- Velvetleaf plant response rating (velvetleaf; [1]): 4
- Velvetleaf plant response rating (velvetleaf; [3]): 3
- Velvetleaf plant response rating (0 to 10 scale) (velvetleaf; [14]): 4
- Plant response rating, Velvetleaf (velvetleaf; [15]): 4
- Velvetleaf plant response rating (velvetleaf; [6]): 5
- Velvetleaf plant response rating (velvetleaf; [7]): 2
- Plant response rating, Velvetleaf (velvetleaf; [16]): 4
- Velvetleaf plant response rating (velvetleaf; [8]): 5
- Wheat plant response rating (wheat; [1]): 0
- Wheat plant response rating (wheat; [3]): 0
- Wheat plant response rating (0 to 10 scale) (wheat; [14]): 0
- Plant response rating, Wheat (wheat; [15]): 2
- Wheat plant response rating (wheat; [6]): 3
- Wheat plant response rating (wheat; [7]): 0
- Plant response rating, Wheat (wheat; [16]): 0
- Wheat plant response rating (wheat; [8]): 2
- Redroot pigweed plant response rating (pigweed; [1]): 0
- Plant response rating, Redroot pigweed (pigweed; [4]): 3
- Plant response rating, Redroot pigweed (pigweed; [5]): 10
- Redroot pigweed plant response rating (pigweed; [6]): 10
- Redroot pigweed plant response rating (pigweed; [7]): 0
- Plant response rating, Redroot pigweed (pigweed; [17]): 0
- Redroot pigweed plant response rating (pigweed; [8]): 3
- Corn plant response rating (corn; [1]): 0
- Corn plant response rating (corn; [2]): 0
- Corn plant response rating (corn; [3]): 0
- Plant response rating, Corn (corn; [4]): 0
- Plant response rating, Corn (corn; [5]): 6
- Corn plant response rating (corn; [6]): 9
- Corn plant response rating (corn; [7]): 0
- Corn plant response rating (corn; [8]): 0
- Wild oats plant response rating (wild oat; [1]): 0
- Wild oats plant response rating (wild oat; [3]): 9
- Wild oats plant response rating (0 to 10 scale) (wild oat; [14]): 9
- Plant response rating, Wild oats (wild oat; [15]): 9
- Wild oats plant response rating (wild oat; [6]): 9
- Wild oats plant response rating (wild oat; [7]): 0
- Plant response rating, Wild oats (wild oat; [16]): 3
- Wild oats plant response rating (wild oat; [8]): 3
- Cocklebur plant response rating (cocklebur; [1]): 0
- Cocklebur plant response rating (cocklebur; [2]): 0
- Plant response rating, Cocklebur (cocklebur; [4]): 0
- Plant response rating, Cocklebur (cocklebur; [5]): 0
- Cocklebur plant response rating (cocklebur; [6]): 0
- Cocklebur plant response rating (cocklebur; [7]): 0
- Cocklebur plant response rating (cocklebur; [8]): 2
- Blackgrass plant response rating (blackgrass; [1]): 7
- Blackgrass plant response rating (blackgrass; [2]): 7
- Blackgrass plant response rating (blackgrass; [3]): 5
- Plant response rating, Blackgrass (blackgrass; [4]): 7
- Plant response rating, Blackgrass (blackgrass; [5]): 9
- Blackgrass plant response rating (blackgrass; [6]): 10
- Blackgrass plant response rating (blackgrass; [7]): 4
- Blackgrass plant response rating (blackgrass; [8]): 8
- S. Flatsedge plant response rating (smallflower flatsedge; Postemergence (flood test species), Rate 125 g/ha, scale of 0 to 10 where 0 is no effect and 10 is complete control): 0
- S. Flatsedge plant response rating (smallflower flatsedge; Pre-emergence, Rate 1000 g/ha, scale 0 to 10 (0 no effect, 10 complete control)): 0
- S. Flatsedge plant response rating (smallflower flatsedge; Rate 62 g/ha, Postemergence section, flood test species, scale of 0 to 10 where 0 is no effect and 10 is complete control): 0
- Plant response rating, S. Flatsedge (smallflower flatsedge; Rate 250 g/ha, Postemergence (flood test), scale 0 to 10, 0 is no effect, 10 is complete control): 0
- S. Flatsedge plant response rating (smallflower flatsedge; [10]): 0
- Plant response rating, S. Flatsedge (smallflower flatsedge; [11]): 0
- S. Flatsedge plant response rating (smallflower flatsedge; [12]): 0
- S. Flatsedge plant response rating (smallflower flatsedge; Rate 2000 g/ha, Pre-emergence (as headed), scale 0 to 10): 0
- Soybean plant response rating (soybean; [1]): 3
- Soybean plant response rating (soybean; [3]): 0
- Plant response rating, Soybean (soybean; [4]): 0
- Plant response rating, Soybean (soybean; [5]): 0
- Soybean plant response rating (soybean; [6]): 2
- Soybean plant response rating (soybean; [7]): 1
- Plant response rating, Soybean (soybean; [17]): 5
- Soybean plant response rating (soybean; [8]): 5
- Nutsedge plant response rating (purple nutsedge; [1]): 3
- Nutsedge plant response rating (purple nutsedge; [2]): 4
- Nutsedge plant response rating (purple nutsedge; [3]): 0
- Plant response rating, Nutsedge (purple nutsedge; [4]): 0
- Plant response rating, Nutsedge (purple nutsedge; [5]): 0
- Nutsedge plant response rating (purple nutsedge; [6]): 0
- Nutsedge plant response rating (purple nutsedge; [7]): 0
- Nutsedge plant response rating (purple nutsedge; [8]): 4
- Sugarbeets plant response rating (sugar beet; [1]): 0
- Sugarbeets plant response rating (sugar beet; [3]): 3
- Sugarbeets plant response rating (0 to 10 scale) (sugar beet; [14]): 3
- Plant response rating, Sugarbeets (sugar beet; [15]): 4
- Sugarbeets plant response rating (sugar beet; [6]): 8
- Sugarbeets plant response rating (sugar beet; [7]): 0
- Plant response rating, Sugarbeets (sugar beet; [16]): 2
- Sugarbeets plant response rating (sugar beet; [8]): 2
